Data published in patent US20150079105A1, “TREATMENT OF ACUTE INFLAMMATION IN THE RESPIRATORY TRACT” (UCL Business PLC, priority 2012, published 2015).
“Also recorded” adds a separate entry of the source.

Columns and labels:
LPS challenged mice = assay: LPS-induced acute lung inflammation in mice: BAL fluid cell counts, MPO, serum albumin; format: in vivo; settings: 10 mg/kg i.p. immediately after LPS challenge; 3 h
human neutrophils = assay: Human neutrophil chemotaxis (ChemoTX) towards recombinant human chemokines; format: cell-based; settings: 50 ng/ml; 45 min; 5×10^4 neutrophils per well
Protocol: FIG. 17. Healthy human volunteers were challenged with nebulized 0.9% saline […] (final LPS dose was 50 μg) and BAL fluid collected 6 hours later. CCL7 protein levels in BAL fluid from saline-treated or LPS-challenged human volunteers were measured by ELISA (a). Human neutrophil chemotaxis was measured across 5 μm membranes (ChemoTX, NeuroProbe) in response to recombinant human (rh) CXCL8 or rhCCL7 (b). Neutrophil chemotaxis towards LPS-treated human BAL fluid was measured in the presence of neutralizing anti-CXCL8 or anti-CCL7 antibodies (c). BAL fluid was collected from patients suffering with ALI on intensive care units. CCL7 protein (d) and CCL2 protein (f) in ALI BAL fluid was measured by ELISA. Neutrophil chemotaxis towards BAL fluid obtained from patients with ALI was measured in the presence of neutralizing anti-CXCL8 and ant-CCL7 antibodies (e). […]
Although it is widely accepted that CXCL8 (IL-8) is an important chemokine in human neutrophilic lung disease (Miller, E. J. et al Am. Rev. Respir. Dis. 146, 427-432 (1992)), it is far from clear whether other chemokines are associated with disease pathogenesis. […] For these studies, CCL7 was measured by ELISA in BAL fluid from healthy volunteers challenged with LPS (50 μg) at 6 hours as previously described (Shyamsundar, M. et al Am. J. Respir. Crit Care Med. 179, 1107-1114 (2009)). […]

naïve mice = assay: Intranasal administration of recombinant CCL2 or CCL7 to naïve mice, BAL fluid cell counts; format: in vivo; settings: 500 ng/mouse i.n., 3 h; for total cell number recovered from BAL fluid: compared to saline treated controls
Protocol: FIG. 15. Naïve mice were administered with either rCCL2 or rCCL7 (500 ng/mouse, i.n.) and 3 h later BAL fluid was recovered. BAL fluid total cell counts (A) and total neutrophils (B) were calculated from differential cell counts performed on cytospin preparations. The percentage of neutrophils in BAL fluid was also calculated (C). Differential cell counts were performed on cytospin preparations following saline (D), rCCL2 (E) or rCCL7 (F) administration. Data were analysed by one way ANOVA with Newman-Keuls post hoc test: *p<0.05, **p<0.01,*** p<0.001. Arrows indicate: N, neutrophil; M, monocyte/macrophage.
In order to determine the whether CCL2 and CCL7 are able to directly recruit leukocytes into the lung, recombinant CCL2 or CCL7 was administered into the lungs of naïve mice and sampled the BAL fluid after 3 h. […] Differential cell counts were performed on cytospin preparations following saline (FIG. 15D), rCCL2 (FIG. 15E) or rCCL7 (FIG. 15F) administration.

Compound: CCOC(=O)N[C@@H]1CC[C@@H]2[C@@H](C1)C[C@H]1C(=O)O[C@H](C)[C@H]1[C@H]2/C=C/c1ccc(-c2cccc(F)c2)cn1 [SCH530348]
- neutrophil numbers in the airspaces (BAL fluid) (LPS challenged mice): significantly decreased
- total cell numbers in the airspaces (BAL fluid) (LPS challenged mice): significantly decreased

Compound: CCL7: Recombinant human CCL7 (Peprotech)
- migration of neutrophils compared to media alone (human neutrophils): did not influence

Compound: CXCL8: Recombinant human CXCL8 (IL-8) (Peprotech)
- migration of neutrophils compared to media alone (human neutrophils): increased

Compound: rCCL2: recombinant CCL2
- recruitment of neutrophils into lung airspaces (naïve mice): resulted in the recruitment of a neutrophils
- total cell number recovered from BAL fluid (naïve mice): increased; also recorded: greater number of leukocytes compared to rCCL7

Compound: rCCL7: recombinant CCL7
- neutrophils as a percentage of total cells recovered from BAL fluid (naïve mice): preferential accumulation of neutrophils compared to rCCL2
- recruitment of neutrophils into lung airspaces (naïve mice): resulted in the recruitment of a neutrophils
- total cell number recovered from BAL fluid (naïve mice): increased
